# Reference: PMC10671052, “Naphthyl-Substituted Indole and Pyrrole Carboxylic Acids as Effective Antibiotic Potentiators—Inhibitors of Bacterial Cystathionine γ-Lyase” (International Journal of Molecular Sciences, 2023)
# Tests used:
# [1] = molecular target: S. aureus cystathionine-γ-lyase (bCSE) (Staphylococcus aureus, UniProt A0A0H3K724); experiment: IC50 assay: inhibition of H2S production by purified bCSE, WSP5 fluorescent probe; assay type: biochemical
# Procedure: (§1) Fluorescence spectrophotometry-based inhibitory activity toward purified bCSE and hCSE was measured in a 96-well nonbinding black plate (Greiner, Kremsmunster, Austria) at 100 μL of the reaction mixture per well. bCSE and hCSE (0.02 μM) were preincubated in a thermoshaker (Biosan, Riga, Latvia) (30 °C, 300 rpm) for 40 min in 50 mM sodium phosphate buffer (pH 8.0), supplemented with 10 μM pyridoxal 5′-phosphate (Sigma-Aldrich, St. Louis, MO, USA), 0.1% of Tween 20 (Sigma-Aldrich, St. Louis, MO, USA), and 1.2 μM Washington State Probe-5 (Cayman Chemical, Ann Arbor, MI, USA) (excitation: 500 nm, emission: 530 nm) at different concentrations of a tested inhibitor. The reaction was initiated by the addition of 100 μM L-cysteine (TCI, Chennai, Tamil Nadu, India) in 50 mM sodium phosphate buffer pH 8.0 to the reaction mixture, and the enzymatic activity was monitored for 12 h using a CLARIOstar Plus instrument (BMG LABTECH GmbH, Ortenberg, Germany). The 100 µM L-cysteine concentration used in the experiments corresponds to the maximal reported intracellular concentration in bacteria. The data were normalized to the positive and negative controls, and IC50 values were obtained by fitting to a four-parameter sigmoidal curve (inhibitor vs. response, variable slope model) in GraphPad Prism 8 software (GraphPad by Dotmatics, Boston, MA, USA). Each experiment was conducted with 2–3 technical replicates. IC50 values were means of at least two independent experiments.
# (§2) For the production of S. aureus cystathionine-γ-lyase (bCSE) and of human cystathionine-γ-lyase (hCSE), plasmids pSUMO:saCSE (Addgene # 54336) and pNIC28-Bsa4 (Addgene # 42365) were employed. Cultivation of a competent E. coli cell strain (Thermo Fisher Scientific, Waltham, MA, USA), transformed with a target plasmid, was carried out on a selective solid medium with kanamycin. Bacterial cells harboring the plasmid vector were cultured at 37 °C and 180 rpm until OD600 = 0.65. Then, isopropyl β-D1-thiogalactopyranoside (IPTG) was added to a final concentration of 1 mM. To obtain bCSE, the cells were cultured for 3.5 h at 37 °C; to obtain hCSE, the cells were cultured for 18–20 h at 25 °C. After centrifugation, cells were resuspended in a buffer composed of 50 mM Tris–HCl, at a pH of 8.0, and 300 mM sodium chloride. After that, the cells were lysed by ultrasonication, with a pulse duration of 15 s and an interval between pulses of 15 s. The amplitude of the ultrasonic vibrations was 50% of the maximum. After lysis, samples were centrifuged for 15 min (20,000× g at 4 ℃). The pH of the supernatant obtained after the centrifugation was adjusted to 7.5 by the addition of a 1 M solution of Tris–OH. Then, the test sample was subjected to filtration through a polyethersulfone membrane with a pore diameter of 0.22 μm.
# [2] = molecular target: T1, human cystathionine-γ-lyase (hCSE) (Homo sapiens, UniProt P32929); experiment: IC50 assay: inhibition of H2S production by purified hCSE, WSP5 fluorescent probe; assay type: biochemical; settings: purified hCSE 0.02 μM, 100 μM L-cysteine, WSP5 probe, mean ± SD; read-out: IC50 biochemical assay hCSE
# T1 construct: His6-TEV (N, cleaved yes); host or cells: E. coli
# T1 sequence (P32929 whole entry): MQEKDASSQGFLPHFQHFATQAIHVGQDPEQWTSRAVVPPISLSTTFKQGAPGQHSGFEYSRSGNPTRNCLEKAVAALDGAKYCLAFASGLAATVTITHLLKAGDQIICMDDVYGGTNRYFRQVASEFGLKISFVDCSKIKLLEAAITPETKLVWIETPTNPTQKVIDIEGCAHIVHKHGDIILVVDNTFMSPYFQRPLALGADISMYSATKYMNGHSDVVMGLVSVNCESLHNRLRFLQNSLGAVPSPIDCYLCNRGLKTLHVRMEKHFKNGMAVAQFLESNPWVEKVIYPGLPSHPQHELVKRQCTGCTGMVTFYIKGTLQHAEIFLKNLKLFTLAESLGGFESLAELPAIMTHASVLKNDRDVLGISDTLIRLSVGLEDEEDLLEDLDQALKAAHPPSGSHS
# Procedure: as §1, §2
# [3] = Caco-2 cell permeability; assay type: in vitro ADME; settings: human
# Procedure: The culture medium consisted of high-glucose DMEM containing 10% of fetal bovine serum, 4 mM L-glutamine, 1% of a solution of nonessential amino acids (PanEco, Moscow, Russia), 100 U/mL penicillin, and 100 μg/mL streptomycin. The cells were maintained for 21 days at 37 °C and 5% CO2. The medium was refreshed every 3 days. A Lucifer yellow rejection assay was applied to determine cell monolayer integrity. […] The Lucifer yellow rejection value was calculated using the equation: LY % rejection = 100*(1−FIb/FIa), where FIb is the fluorescence in the basolateral compartment and FIa is the fluorescence in the apical compartment. […] Both apical-to-basolateral (AB) and basolateral-to-apical (BA) transport were assessed. For apical-to-basolateral transport, 0.3 mL of a test compound solution was added to the apical side, and 0.8 mL of HBSS with 0.5% of BSA was added to the basolateral side. For basolateral-to-apical transport, 0.8 mL of a test compound solution was added to the basolateral side and 0.3 mL of HBSS with 0.5% of BSA was added to the apical side. The Caco-2 cell monolayers were then incubated for 2 h at 37 °C. The pH values of the apical and basolateral compartments were 7.4. […] The supernatant was transferred to a vial and analyzed by liquid chromatography coupled with tandem MS (LC–MS/MS). The AB (or BA) apparent permeability coefficients (Papp, 10^–6 cm/s) were calculated according to the following formula [40, 41]: Papp = (V × ∆C)/(∆t × A × C0), where V is the volume of the receiver compartment (cm^3), C0 is the initial drug concentration in the donor compartment (μM), ∆C is the concentration in the receiver compartment (μM), ∆t is the incubation time (s), and A is the surface area of the cell monolayer (cm^2). An efflux ratio was calculated by dividing Papp (BA) by Papp (AB). All compounds were tested in duplicate.
# [4] = LogD7.4, miniaturized shake flask method; assay type: physicochemical; settings: 1-octanol / 100 mM sodium phosphate buffer pH 7.4
# Procedure: Coefficients of distribution between 1-octanol and 100 mM sodium phosphate buffer (pH 7.4) were determined by the miniaturized shake flask method. Namely, 5 μL of a 10 mM compound’s solution in DMSO was dissolved in 245 μL of 1-octanol saturated with phosphate buffer. Next, 500 μL of phosphate buffer saturated with 1-octanol was added, followed by mixing for 3 h. […] After that, 50 μL of the octanol phase (top layer) was aspirated and diluted with 500 μL of 1-octanol saturated with phosphate buffer. Then, the remaining octanol phase was removed; 50 μL of the buffer layer was aspirated and diluted with 500 μL of phosphate buffer saturated with 1-octanol. Both the octanol and phosphate buffer samples were analyzed by LC–MS/MS. The distribution coefficient was determined according to the following equation: logD7.4 = log10 (peak area for octanol sample/peak area for buffer sample). […] All compounds were tested in triplicate.
# [5] = system: P. aeruginosa GIMC5016:PA1840/36/2015; experiment: MIC of antibiotics alone and with potentiators, clinical isolate
# Procedure: Overnight (ON) culture of a specific strain was grown in the liquid Luria–Bertani nutrient medium (LB broth, BD Difco) for 18 h at 37 °C, with agitation at 180 rpm using an Innova 44R orbital shaker (Eppendorf, Hamburg, Germany). After a certain period, 50 µL of the ON culture was transferred into 5 mL of the LB medium and grown for 3 h at 37 °C with agitation. Growth in the liquid medium was assessed by means of turbidity of the suspension, measured using a Densi-La-Meter II densitometer (Erba Lachema s.r.o., Brno, Czech Republic). Then, the bacterial suspension was diluted to the concentration 10^6 cells/mL with sterile LB and used as a seed culture [38, 39].
# For the assessment of MICs, 96-well microtiter plates were utilized at 200 µL of a medium per well. Each well was filled with 100 µL of the seed culture. After that, 10 µL of a solution of each tested synthetic compound (potentiators) was added into each experimental well. Finally, 90 µL of twofold serial dilutions of an antibiotic in a sterile LB was added into individual wells.
# As a positive control, we set up wells with 100 µL of the bacterial culture and 100 µL of the sterile LB medium. […] Negative-control wells contained 200 µL of the sterile medium. The plates were incubated in a thermostat for 18–20 h at 37 °C. The bacterial growth was assessed as optical density at 600 nm on a CLARIOstar microplate reader (BMG LABTECH GmbH, Ortenberg, Germany)).
# [6] = P. aeruginosa GIMC5016:PA1840/36/2015, potentiator 50 µg/mL
# S. aureus cystathionine-γ-lyase (bCSE), sequence (A0A0H3K724 entry or part of it): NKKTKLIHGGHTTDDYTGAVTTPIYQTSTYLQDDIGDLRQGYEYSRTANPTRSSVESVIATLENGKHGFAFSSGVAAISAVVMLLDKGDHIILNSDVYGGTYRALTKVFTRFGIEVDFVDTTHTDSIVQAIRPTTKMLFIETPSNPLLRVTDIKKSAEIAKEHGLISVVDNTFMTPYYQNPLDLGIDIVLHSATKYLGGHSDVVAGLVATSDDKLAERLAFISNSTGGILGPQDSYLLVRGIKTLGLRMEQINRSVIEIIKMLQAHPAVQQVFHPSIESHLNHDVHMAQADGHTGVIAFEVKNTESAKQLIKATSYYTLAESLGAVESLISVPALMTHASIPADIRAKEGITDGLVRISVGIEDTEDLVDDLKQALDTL
smiles,measurement,setting,value
O=C(O)c1cc2ccccc2n1Cc1cccc2ccccc12 [Compound 2a],IC50,"[1]; IC50 (uM), bCSE enzymatic IC50, rounded, repeated in Table S13",65 µM
same,IC50,"[1]; IC50 (uM), bCSE enzymatic IC50, rounded, repeated in Table S14",65 µM
same,IC50,"[1]; IC50 (uM), bCSE enzymatic IC50, rounded, repeated in Table S15",65 µM
same,IC50,"[1]; IC50 biochemical assay bCSE, purified bCSE 0.02 μM, 100 μM L-cysteine, WSP5 probe, mean ± SD",64.6 ± 3.1 µM
same,IC50,[2],251 ± 16.6 µM
same,"efflux ratio at 2 h, 10 μM","[3]; Caco-2, Papp (BA) / Papp (AB)",1.13
same,"Papp A→B at 2 h, 10 μM","[3]; Caco-2, 10 μM, 2 h, pH 7.4",433 ± 28 nm/s
same,"Papp B→A at 2 h, 10 μM","[3]; Caco-2, 10 μM, 2 h, pH 7.4",491 ± 60 nm/s
same,Measured logD7.4,[4]; listed as 2а,2.14±0.14
same,Measured logD7.4,[4]; listed as lead compound,1–3
same,MIC of Tacillin in combination with potentiator,"[5]; P. aeruginosa GIMC5016:PA1840/36/2015, piperacillin + tazobactam, potentiator 50 µg/mL",32 mg/L
same,MIC of Cefepim in combination with potentiator,[5]; [6],32 mg/L
same,MIC of Gentamicin in combination with potentiator,[5]; [6],> 512 mg/L
same,MIC of Meropenem in combination with potentiator,[5]; [6],8 mg/L
